From patent US8846730B2, “Compounds as cannabinoid receptor ligands” (priority 2008, dated 2014)
Like-named read-outs stand apart in the source and are kept apart here.

Assays:
human CB2 receptors = human CB2 receptors (Homo sapiens (Human), UniProt P34972); assay: human CB2 radioligand binding assay ([3H]CP 55,940 competition)
Description: (§1) The CB1 and CB2 radioligand binding assays described herein are utilized to ascertain the affinity of compounds of the present application for binding to CB2 relative to CB1 receptors.
HEK293 cells stably expressing human CB2 receptors were grown until a confluent monolayer was formed. Briefly, the cells were harvested and homogenized in TE buffer (50 mM Tris-HCl, 1 mM MgCl2, and 1 mM EDTA) using a polytron for 2×10 second bursts in the presence of protease inhibitors, followed by centrifugation at 45,000×g for 20 minutes. The final membrane pellet was re-homogenized in storage buffer (50 mM Tris-HCl, 1 mM MgCl2, and 1 mM EDTA and 10% sucrose) and frozen at −78° C. until used. Saturation binding reactions were initiated by the addition of membrane preparation (protein concentration of 5 μg/well for human CB2) into wells of a deep well plate containing [^3H]CP 55,940 (120 Ci/mmol, a nonselective CB agonist commercially available from Tocris) in assay buffer (50 mM Tris, 2.5 mM EDTA, 5 mM MgCl2, and 0.5 mg/mL fatty acid free BSA, pH 7.4). After 90 min incubation at 30° C., binding reaction was terminated by the addition of 300 μL/well of cold assay buffer followed by rapid vacuum filtration through a UniFilter-96 GF/C filter plates (pre-soaked in 1 mg/mL BSA for 2 hours). The bound activity was counted in a TopCount using Microscint-20. Saturation experiments were conducted with twelve concentrations of [^3H]CP 55,940 ranging from 0.01 to 8 nM. Competition experiments were conducted with 0.5 nM [^3H]CP 55,940 and five concentrations (0.01 nM to 10 μM) of displacing ligands. The addition of 10 μM unlabeled CP 55,940 (Tocris, Ellisville, Mo.) was used to assess nonspecific binding.

rat CB2 receptors = rat CB2 receptors (Rattus norvegicus (Rat), UniProt Q9QZN9); assay: rat CB2 radioligand binding assay ([3H]CP 55,940 competition); details: HEK293 membranes, 0.5 nM [3H]CP 55,940
Description: as §1
HEK293 cells stably expressing rat CB2 receptors were grown until a confluent monolayer was formed. Briefly, the cells were harvested and homogenized in TE buffer (50 mM Tris-HCl, 1 mM MgCl2, and 1 mM EDTA) using a polytron for 2×10 second bursts in the presence of protease inhibitors, followed by centrifugation at 45,000×g for 20 minutes. The final membrane pellet was re-homogenized in storage buffer (50 mM Tris-HCl, 1 mM MgCl2, and 1 mM EDTA and 10% sucrose) and frozen at −78° C. until used. Saturation binding reactions were initiated by the addition of membrane preparation (protein concentration of 20 μg/well for rat CB2) into wells of a deep well plate containing [^3H]CP 55,940 (120 Ci/mmol, a nonselective CB agonist commercially available from Tocris) in assay buffer (50 mM Tris, 2.5 mM EDTA, 5 mM MgCl2, and 0.5 mg/mL fatty acid free BSA, pH 7.4). After 45 min incubation at 30° C., binding reaction was terminated by the addition of 300 μl/well of cold assay buffer followed by rapid vacuum filtration through a UniFilter-96 GF/C filter plates (pre-soaked in 1 mg/mL BSA for 2 hours). The bound activity was counted in a TopCount using Microscint-20. Saturation experiments were conducted with twelve concentrations of [^3H]CP 55,940 ranging from 0.01 to 8 nM. Competition experiments were conducted with 0.5 nM [^3H]CP 55,940 and five concentrations of displacing ligands selected from the range of 0.01 nM to 10 μM. The addition of 10 μM unlabeled CP 55,940 (Tocris, Ellisville, Mo.) was used to assess nonspecific binding.

[1] = biological target: rat CB1 receptors (HEK cells) (Rattus norvegicus (Rat), UniProt P20272); assay: rat CB1 cyclase functional assay (HitHunter cAMP); assay type: cell-based
Description: The cyclase functional assays were performed using the HitHunter™ cAMP assay kit from DiscoveRx (Fremont, Calif.) according to vendor's protocol. Briefly, HEK cells expressing CB2 or CB1 receptors (rat or human) were detached using cell dissociation buffer (Invitrogen, Carlsbad, Calif.), dispersed and placed in suspension at 10,000 cells per well in 96 well plates prior to the assay. Cell suspensions were incubated at 37° C. for 20 min with variable concentrations of test ligands and or 10 μM CP 55,940-positive control in the presence of a fixed concentration of forskolin (18 μM for rat CB2 and 37 μM for rat CB1) in Dulbescco's phosphate-buffered saline (Invitrogen, Carlsbad, Calif.) supplemented with bovine serum albumin (0.01% final concentration). The reactions were terminated by the addition of lysis buffer and the luminescence was detected following the procedure according to the manufacturer's instructions. EC50 values were calculated using sigmoidal dose-response curve fitting from Prism (GraphPad).

[2] = HEK293 membranes, 0.5 nM [3H]CP 55,940, read-out: human CB2 (Ki)
[3] = HEK cells, forskolin 37 μM, read-out: rCB1 cyclase (EC50)

rat CB1 receptors (HEK cells), sequence (P20272 whole entry): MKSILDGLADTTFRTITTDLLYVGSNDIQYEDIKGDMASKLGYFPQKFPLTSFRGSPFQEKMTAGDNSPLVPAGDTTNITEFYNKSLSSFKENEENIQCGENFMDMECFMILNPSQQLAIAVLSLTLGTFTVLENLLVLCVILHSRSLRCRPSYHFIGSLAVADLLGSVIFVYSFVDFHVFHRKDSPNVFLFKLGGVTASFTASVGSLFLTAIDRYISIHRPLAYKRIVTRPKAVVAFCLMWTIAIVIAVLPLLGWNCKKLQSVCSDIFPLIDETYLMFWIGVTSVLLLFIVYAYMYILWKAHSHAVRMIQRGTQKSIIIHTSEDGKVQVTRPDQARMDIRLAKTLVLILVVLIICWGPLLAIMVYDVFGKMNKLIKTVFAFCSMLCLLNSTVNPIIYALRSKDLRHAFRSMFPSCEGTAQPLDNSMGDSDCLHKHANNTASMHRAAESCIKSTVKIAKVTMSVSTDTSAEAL
human CB2 receptors, sequence (P34972 whole entry): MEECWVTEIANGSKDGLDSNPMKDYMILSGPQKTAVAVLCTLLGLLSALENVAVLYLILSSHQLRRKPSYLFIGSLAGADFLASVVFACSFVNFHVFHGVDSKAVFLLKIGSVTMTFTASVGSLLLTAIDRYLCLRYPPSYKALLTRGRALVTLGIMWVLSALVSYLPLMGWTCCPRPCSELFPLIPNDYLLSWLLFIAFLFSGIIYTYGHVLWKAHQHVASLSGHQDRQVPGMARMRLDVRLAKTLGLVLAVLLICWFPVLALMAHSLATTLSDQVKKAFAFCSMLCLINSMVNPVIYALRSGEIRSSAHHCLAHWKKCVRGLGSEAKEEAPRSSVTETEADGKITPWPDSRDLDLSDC

| SMILES | Ki (human CB2 receptors) [nM] | Ki (rat CB2 receptors) [nM] | Ki (human CB2 receptors; [2]) [nM] | EC50 [1] [µM] | EC50 [1, 3] [µM] |
| --- | --- | --- | --- | --- | --- |
| CC(C)(C)c1cn(C[C@H]2CCCO2)/c(=N/C(=O)c2cc(C(F)(F)F)ccc2ON=C2CCCC2)s1 [Example 83, N-[(2Z)-5-tert-butyl-3-(2R)-(tetrahydrofuran-2-ylmethyl)-1,3-thiazol-2(3H)-ylidene]-2-[(cyclopentylideneamino)oxy]-5-(trifluoromethyl)benzamide] | 0.5 | 1.2 | – | – | – |
| CCN(CC)Oc1ccc(C(F)(F)F)cc1C(=O)/N=c1\sc(C(C)(C)C)cn1C[C@H]1CCCO1 [Example 78, N-[(2Z)-5-tert-butyl-3-[(2R)-tetrahydrofuran-2-ylmethyl]-1,3-thiazol-2(3H)-ylidene]-2-[(diethylamino)oxy]-5-(trifluoromethyl)benzamide] | – | 4.6 | 22 | – | – |
| C[C@@H](O)COc1ccc(C(F)(F)F)cc1C(=O)/N=c1\sc(C(C)(C)C)cn1C[C@H]1CCCO1 [Example 81, N-[(2Z)-5-tert-butyl-3-[(2R)-tetrahydrofuran-2-ylmethyl]-1,3-thiazol-2(3H)-ylidene]-2-{[(2R)-2-hydroxypropyl]oxy}-5-(trifluoromethyl)benzamide] | – | 0.5 | 1.1 | – | – |
| CC(C)(C)/C(COc1ccc(C(F)(F)F)cc1C(=O)/N=c1\sc(C(C)(C)C)cn1C[C@H]1CCCO1)=N\O [Example 71, N-[(2Z)-5-tert-butyl-3-[(2R)-tetrahydrofuran-2-ylmethyl]-1,3-thiazol-2(3H)-ylidene]-2-{[(2E)-2-(hydroxyimino)-3,3-dimethylbutyl]oxy}-5-(trifluoromethyl)benzamide] | – | 4.1 | 5.4 | > 27 | – |
| CC(=O)N1CCC[C@H]1COc1ccc(C(F)(F)F)cc1C(=O)/N=c1\sc(C(C)(C)C)cn1C[C@H]1CCCO1 [Example 47, 2-{[(2S)-1-acetylpyrrolidin-2-yl]methoxy}-N-[(2Z)-5-tert-but 1-3[(2R)-tetrahydrofuran-2-ylmethyl]-1,3-thiazol-2(3H)-ylidene]-5-(trifluoromethyl)benzamide] | – | 24 | 107 | – | – |
| CC(C)NOc1ccc(C(F)(F)F)cc1C(=O)/N=c1\sc(C(C)(C)C)cn1C[C@H]1CCCO1 [Example 79, N-[(2Z)-5-tert-butyl-3-[(2R)-tetrahydrofuran-2-ylmethyl]-1,3-thiazol-2(3H)-ylidene]-2-[(isopropylamino)oxy]-5-(trifluoromethyl)benzamide] | – | 0.5 | 0.3 | – | – |
| CN1CCC[C@H]1COc1ccc(C(F)(F)F)cc1C(=O)/N=c1\scc(C(C)(C)C)n1C[C@H]1CCCO1 [Example 57, N-[(2Z)-4-tert-butyl-3-[(2R)-tetrahydrofuran-2-ylmethyl]-1,3-thiazol-2(3H)-ylidene]-2-{[(2S)-1-methylpyrrolidin-2-yl]methoxy}-5-(trifluoromethyl)benzamide] | – | 15 | 289 | – | – |
| CC(C)(C)OC(=O)NNc1ccc(C(F)(F)F)cc1C(=O)/N=c1\sc(C(C)(C)C)cn1C[C@H]1CCCO1 [Example 40, tert-butyl 2-[2-({[(2Z)-5-tert-butyl-3-[(2R)-tetrahydrofuran-2-ylmethyl]-1,3-thiazol-2(3H)-ylidene]amino}carbonyl)-4-(trifluoromethyl)phenyl]hydrazinecarboxylate] | 0.4 | 0.3 | – | – | – |
| CC(COc1ccc(C(F)(F)F)cc1C(=O)/N=c1\sc(C(C)(C)C)cn1C[C@H]1CCCO1)=NO [Example 73, N-[(2Z)-5-tert-butyl-3-[(2R)-tetrahydrofuran-2-ylmethyl]-1,3-thiazol-2(3H)-ylidene]-2-{[2-(hydroxyimino)propyl]oxy}-5-(trifluoromethyl)benzamide] | – | 0.5 | 1.8 | – | 2.32 |
| CC(CN1CCC[C@H]1COc1ccc(C(F)(F)F)cc1C(=O)/N=c1\sc(C(C)(C)C)cn1C[C@H]1CCCO1)=NO [Example 77, N-[(2Z)-5-tert-butyl-3-[(2R)-tetrahydrofuran-2-ylmethyl]-1,3-thiazol-2(3H)-ylidene]-2-({(2S)-1-[2-(hydroxyimino)propyl]pyrrolidin-2-yl}methoxy)-5-(trifluoromethyl)benzamide] | – | 64 | 85 | – | – |
| Cn1cncc1COc1ccc(C(F)(F)F)cc1C(=O)/N=c1\sc(C(C)(C)C)cn1C[C@H]1CCCO1 [Example 67, N-[(2Z)-5-tert-butyl-3-[(2R)-tetrahydrofuran-2-ylmethyl]-1,3-thiazol-2(3H)-ylidene]-2-[(1-methyl-1H-imidazol-5-yl)methoxy]-5-(trifluoromethyl)benzamide] | – | 13 | 115 | – | > 27 |
| CC(C)(C)c1cn(C[C@H]2CCCO2)/c(=N/C(=O)c2cc(C(F)(F)F)ccc2OCC(C)(C)n2cccc2)s1 [Example 74, N-[(2Z)-5-tert-butyl-3-[(2R)-tetrahydrofuran-2-ylmethyl]-1,3-thiazol-2(3H)-ylidene]-2-[2-methyl-2-(1H-pyrrol-1-yl)propoxy]-5-(trifluoromethyl)benzamide] | – | 6.6 | 34 | – | – |
| CN1CCC[C@H]1CNc1ccc(C(F)(F)F)cc1C(=O)/N=c1\sc(C(C)(C)C)cn1C[C@H]1CCCO1 [Example 55, N-[(2Z)-5-tert-butyl-3-[(2R)-tetrahydrofuran-2-ylmethyl]-1,3-thiazol-2(3H)-ylidene]-2-({[(2S)-1-methylpyrrolidin-2-yl]methyl}amino)-5-(trifluoromethyl)benzamide] | – | 8.1 | 36 | – | – |
| CC(=O)NOc1ccc(C(F)(F)F)cc1C(=O)/N=c1\sc(C(C)(C)C)cn1C[C@H]1CCCO1 [Example 75, 2-[(acetylamino)oxy]-N-[(2Z)-5-tert-butyl-3-[(2R)-tetrahydrofuran-2-ylmethyl]-1,3-thiazol-2(3H)-ylidene]-5-(trifluoromethyl)benzamide] | – | 2.5 | 1.2 | – | – |
| CC(COc1ccc(C(F)(F)F)cc1C(=O)/N=c1\sc(C(C)(C)C)cn1C[C@H]1CCCO1)=NOC(C)(C)C [Example 82] | – | 1.7 | 4.9 | – | – |
| CC(=O)C(C)=NOc1ccc(C(F)(F)F)cc1C(=O)/N=c1\sc(C(C)(C)C)cn1C[C@H]1CCCO1 [Example 84, N-[(2Z)-5-tert-butyl-3-[(2R)-tetrahydrofuran-2-ylmethyl]-1,3-thiazol-2(3H)-ylidene]-2-({[1-methyl-2-oxopropylidene]amino}oxy)-5-(trifluoromethyl)benzamide] | – | 2.4 | 3.3 | – | – |
| COCCn1cc(C(C)(C)C)s/c1=N\C(=O)c1cc(C(F)(F)F)ccc1ONC(C)(C)C [Example 76, 2-[(tert-butylamino)oxy]-N-[(2Z)-5-tert-butyl-3-(2-methoxyethyl)-1,3-thiazol-2(3H)-ylidene]-5-(trifluoromethyl)benzamide] | 20 | 5.2 | – | – | – |
